Experimental data published in PubChem BioAssay (NCI).
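Tested at 5 concentrations; 48 h exposure; 96-well plates; endpoints linearly interpolated, else capped at highest concentration. Abbreviation: GI50, concentration required for 50% inhibition of growth. Definition used: TGI = concentration required for complete inhibition of growth.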

Columns and labels:
Test in all cases: NCI anticancer screen, dose series, 48 h
HCT-15 colon = system: HCT-15 colon
HL-60(TB) leukemia = system: HL-60(TB) leukemia
NCI-H522 lung = system: NCI-H522 lung
MALME-3M melanoma = system: MALME-3M melanoma
SF-539 CNS = system: SF-539 CNS
NCI-H23 lung = system: NCI-H23 lung
K-562 leukemia = system: K-562 leukemia
NCI/ADR-RES ovarian = system: NCI/ADR-RES ovarian
SK-MEL-2 melanoma = system: SK-MEL-2 melanoma
UACC-257 melanoma = system: UACC-257 melanoma

| Compound | GI50 (HCT-15 colon) | TGI (HCT-15 colon) | GI50 (HL-60(TB) leukemia) | TGI (HL-60(TB) leukemia) | GI50 (NCI-H522 lung) | TGI (NCI-H522 lung) | GI50 (MALME-3M melanoma) | TGI (MALME-3M melanoma) | GI50 (SF-539 CNS) | TGI (SF-539 CNS) | GI50 (NCI-H23 lung) | TGI (NCI-H23 lung) | GI50 (K-562 leukemia) | TGI (K-562 leukemia) | GI50 (NCI/ADR-RES ovarian) | TGI (NCI/ADR-RES ovarian) | GI50 (SK-MEL-2 melanoma) | TGI (SK-MEL-2 melanoma) | GI50 (UACC-257 melanoma) | TGI (UACC-257 melanoma) |
| --- | --- | --- | --- | --- | --- | --- | --- | --- | --- | --- | --- | --- | --- | --- | --- | --- | --- | --- | --- | --- |
| CN1CCN(CCCOc2cc(O)c3c(=O)cc(-c4ccccc4)oc3c2)CC1 | 4.6 µM | 16.3 µM | 19.1 µM | 39.5 µM | 21.6 µM | 47 µM | 20.8 µM | 42.6 µM | 17.2 µM | 33.1 µM | 19.9 µM | 43.3 µM | 6.98 µM | 21.9 µM | 18.6 µM | 43.2 µM | 35.3 µM | > 100 µM | 19.4 µM | 41.1 µM |
| CNC(=O)c1cncc(/C=C/c2ccccc2Cl)c1 | > 25 µM | > 25 µM | > 25 µM | > 25 µM | > 25 µM | > 25 µM | > 25 µM | > 25 µM | > 25 µM | > 25 µM | > 25 µM | > 25 µM | > 25 µM | > 25 µM | > 25 µM | > 25 µM | > 25 µM | > 25 µM | > 25 µM | > 25 µM |
| CCn1c(-c2nonc2N)nc2c(N3CCCC3)nccc21 | 11.2 µM | > 25 µM | 24.9 µM | > 25 µM | 10.9 µM | > 25 µM | > 25 µM | > 25 µM | 10.8 µM | > 25 µM | 14.9 µM | > 25 µM | 10.3 µM | > 25 µM | 10.7 µM | > 25 µM | > 25 µM | > 25 µM | > 22.4 µM | > 25 µM |
| O=C(O)c1ccc(SSc2ccc(C(=O)O)cn2)nc1 |  | > 100 µM |  | > 100 µM |  | > 100 µM |  | > 100 µM |  | > 100 µM |  | > 100 µM |  | > 100 µM |  | > 100 µM |  | > 100 µM |  | > 100 µM |
| C[C@@H]1CC[C@@]2(NC1)O[C@H]1C[C@H]3[C@@H]4CC[C@H]5C[C@@H](O)CC[C@]5(C)[C@H]4CC[C@]3(C)[C@H]1[C@@H]2C |  | > 100 µM |  | 53.8 µM |  | > 100 µM |  | > 100 µM |  | 77.6 µM |  | > 100 µM |  | > 100 µM |  | > 100 µM |  | > 100 µM |  | > 100 µM |
| O=C[C@@H](CO)O[C@H](C=O)n1cnc2c(=O)[nH]cnc21 |  | 417 µM |  | 217 µM |  | 866 µM |  | 1300 µM |  | 2230 µM |  | 1530 µM |  | 496 µM |  | 1810 µM |  | 1400 µM |  | 1670 µM |
| O=P(O)(O)OCC1OC(n2cnc3c(NCc4ccccc4)ncnc32)C(O)C1O (stereo not given) | 1.19 µM | 16 µM | 0.346 µM | > 100 µM | 2.16 µM | 11.2 µM | 6.64 µM | > 100 µM | 1.55 µM | 4.73 µM | 1.97 µM | 31.4 µM | 2.52 µM | > 100 µM | 1.19 µM | 30.7 µM | > 23.8 µM | > 84.4 µM | > 75.2 µM | > 100 µM |
| CC(SCc1ccccc1)C(=O)O (stereo not given) |  | > 100 µM |  | > 100 µM |  | > 100 µM |  | > 100 µM |  | > 100 µM |  | > 100 µM |  | > 100 µM |  | > 100 µM |  | > 100 µM |  | > 100 µM |
